Data: paper PMC3060972 (Peptides, 2011)

System: E. coli
Assay: Membrane permeability by propidium iodide
Assay type: cell-based
Settings: qualitative comparison with wild type BF2; PI uptake in E. coli

| Sequence | MEMBRANE PERMEABILIZATION compared to wild type |
| --- | --- |
| TRSSRAGLQFAPGRVHRLLRK [P11A/V12P] | SIMILAR |
| TRSSRAGLQFAVGRPHRLLRK [P11A/V15P] | SIMILAR |
| TRSSRAGLQFAVGRVHRLLRK [P11A] | HIGHER |
| TRSSRAPLQFAVGRVHRLLRK [P11A/G7P] | HIGHER |

System: E. coli
Assay: Radial diffusion assay
Assay type: cell-based
Settings: qualitative comparison with wild type BF2

| Sequence | ANTIMICROBIAL ACTIVITY compared to wild type |
| --- | --- |
| TRSSRAGLQFAPGRVHRLLRK [P11A/V12P] | LOWER |
| TRSSRAGLQFAVGRPHRLLRK [P11A/V15P] | LOWER |
| TRSSRAGLQFAVGRVHRLLRK [P11A] | LOWER |
| TRSSRAPLQFAVGRVHRLLRK [P11A/G7P] | SIMILAR |
